Results as given in patent publication US20240010616A1, “SIPONIMOD SALTS AND COCRYSTALS” (Synthon B.V., priority 2020, published 2024).
Entries after “also recorded” stand apart in the source; their conditions may differ.

Experiments:
[1] = Water activity measured by DVS (weight difference between 0 and 90% relative humidity); assay type: physicochemical; conditions: 25° C., 0-90-0% relative humidity, step 10%; compared with prior art Siponimod Fumarate (1:0.5), Form A
Description: Water activity of the prior art form and solid forms of presented invention was measured: DVS machine ProUmid SPX-1μ Advance, 25° C., 0-90-0% relative humidity, step 10%, maximal time per step 10 hours. Equilibrium bandwidth 0.05%/60 minutes.
Water activity: a difference between the weights of the sample in 0 and 90% of relative humidity at a constant temperature. It corresponds to the amount of water taken by the tested compound when the humidity changes from 0 to 90% at a constant temperature. The higher water activity the more water can be taken by the compound and that might result in lower purity of the compound because hydrolysis impurities can be formed.

[2] = Comparison of crystals (SEM pictures): crystal size and proneness to charging; assay type: physicochemical; conditions: compared with prior art fumarate salt; for Proneness of crystals to charging: relates to processability into final forms (tablets); for Crystal size: crystals depicted in FIGS. 17 to 28
Description: • DCS patterns were obtained using the following conditions: 10° C./min->250° C. • Pictures of crystals were obtained by SEM Jeol JCM-6000. • Nuclear magnetic resonance spectroscopy (NMR) was performed using Avance III 400 MHz NMR spectrometer.
Prior art fumarate salt was prepared according to procedure described in WO2010/080409. In FIGS. 17 to 22 the crystals of prior art salt (FIG. 22) and crystals of salts of the presented invention (FIGS. 17 to 21) are depicted.
The crystals of solid Form 11 of cocrystal of Siponimod with adipic acid (2:1) are depicted in FIGS. 25 to 27. The crystal of Siponimod fumarate, Form A, are depicted in FIG. 28.

In the case of `CCc1cc(/C(C)=N/OCc2ccc(C3CCCCC3)c(C(F)(F)F)c2)ccc1CN1CC(C(=O)O)C1.CCc1cc(/C(C)=N/OCc2ccc(C3CCCCC3)c(C(F)(F)F)c2)ccc1CN1CC(C(=O)O)C1.O=C(O)CCCCC(=O)O` [Form 11], the Water activity [1] was “lower water activity than Siponimod fumarate, Form A; also recorded: better comparing to prior art forms”, the “Proneness of crystals to charging” value [2] was “less prone to charging” and the Crystal size [2] was “much bigger than crystals of Form A”.

For `CCc1cc(/C(C)=N/OCc2ccc(C3CCCCC3)c(C(F)(F)F)c2)ccc1CN1CC(C(=O)O)C1.CCc1cc(/C(C)=N/OCc2ccc(C3CCCCC3)c(C(F)(F)F)c2)ccc1CN1CC(C(=O)O)C1.O=C(O)/C=C/C(=O)O` [Prior art fumarate salt, reference compound], the “Proneness of crystals to charging” value [2] was “prone to charging” and the Crystal size [2] was “small crystals”.
